What was measured:
[1] = system: CYP1A2 mRNA; assay: CYP1A2 mRNA expression in primary human hepatocytes (qRT-PCR); type: cell-based; conditions: three donors, 48 h exposure, PCB118 0.1–0.5 µM, omeprazole positive control
[2] = Stability of substrates and metabolites in quality control samples (benchtop, autosampler, freeze-thaw); type: physicochemical; conditions: for Autosampler stability (24 h) Av. Accuracy (%): 10° C for 24 hours in the autosampler; for 3x freeze-thaw Av. Accuracy (%): after three freeze-thaw cycles; for Benchtop stability (19 h) Ac. Accuracy (%): room temperature for 19 hours
Description: The method was validated for intra- and interday accuracy and precision, stability, and matrix effects. […] Validation details are provided in Supplementary Tables 5–7 and supplemental Fig. 3. Glucuronidase/sulfatase digests were used to isolate CYP-specific metabolic activities, reducing interference from polymorphic UDP-glucuronosyltransferase (UGT) and sulfotransferase isoforms.
Supplemental table 6: Stability of the substrates and metabolites. Quality control samples were left at room temperature for 19 hours (benchtop stability) and at 10° C for 24 hours in the autosampler (autosampler stability) or were measured after three freeze-thaw cycles. Stability samples were measured against a freshly prepared set of calibrators and quality control samples.

[3] = system: CYP1A2; assay: CYP phenotyping cocktail clinical study: caffeine/paraxanthine metabolic ratio and its association with PCB plasma levels; conditions: linear regression of MR AUC0–8 h paraxanthine/caffeine (CYP1A2 activity) on PCB plasma concentration
Description: (§1) The participants were ascertained not to have any acute disease by medical history, physical examination, laboratory screening, including hematological and biochemical blood tests, and a 12-lead electrocardiogram. […] The demographic data of the subjects are summarized in Table 1 in the supplemental data. At the enrollment visit, 2 blood samples (9 ml each) were collected into ethylenediaminetetraacetic acid (EDTA)-containing tubes taken from each subject for analyzing the plasma concentrations of PCB congeners and for pharmacogenetic analysis.
(§2) Participants stayed fasted from the evening before until 3 h after drug administration. After that, a meal was provided. Water and juice were permitted but alcoholic and caffeinated beverages were not allowed from the evening before drug administration until the last blood sample was taken on the next day. Venous blood samples (9 ml each) were collected through an intravenous catheter immediately before and 0.25, 0.5, 0.75, 1, 1.5, 2, 2.5, 3, 4, 5, 6, 7, 8, and 24 h after drug administration. Blood was drawn into EDTA-coated tubes, centrifuged at 1500 g for 10 min at 4 °C, and plasma samples were subsequently stored at − 80 °C until further analysis. After completely voiding the bladder immediately before drug administration, the participants collected urine from 0 to 24 h after drug administration. After weighing the collected urine, a 10 ml aliquot of each fraction was taken.
(§3) Commercially sourced standards and internal standards were used for quantification (see Supplemental Materials). In brief, 20 µl of the plasma samples were protein-precipitated with 80 µl methanol containing all internal standards or were treated for 16 h at 37 °C with 2 µl β-glucuronidase (1,000,000 Units) for deconjugation before protein precipitation with 78 µl methanol containing internal standards. Samples were centrifuged for 20 min, at 4 °C and 17,000 × g, and 40 µl of the supernatants were diluted with 40 µl LC–MS grade water, centrifuged again for 5 min at 4 °C and 17,000 × g and 50 µl supernatant were transferred to LC–MS vials 5 µl of the samples were injected into the LC–MS system.
An Agilent 1290 Infinity II UHPLC coupled with a SCIEX QTRAP6500 + triple quadrupole mass spectrometer was used. […]
Partial areas under the plasma concentration–time curves from 0 to 3 h (AUC0–3 h), from 0 to 4 h (AUC0–4 h), and from 0 to 8 h (AUC0–8 h) were calculated based on measured concentrations by the linear trapezoidal rule without extrapolation. […] Metabolic ratios (MR) were calculated by dividing the partial AUC of the metabolite by the respective partial AUC of the parent drug. […]

[4] = system: CYP2C9; assay: CYP phenotyping cocktail clinical study: torsemide/OH-torsemide metabolic ratio and its association with PCB plasma levels; conditions: linear regression of MR AUC0–8 h OH-torsemide/torsemide (CYP2C9 activity) on PCB plasma concentration
Description: as §1, §2, §3
(§4) An Agilent 1290 Infinity II UHPLC coupled with a SCIEX QTRAP6500 + triple quadrupole mass spectrometer was used. Chromatographic separation was achieved on an Agilent Poroshell 120 EC-C18 (1.9 µm, 2.1 × 50 mm) column with A: 0.1% formic acid in water and B: methanol with a flow rate of 0.7 ml/min and a total run time of 8.5 min. Analytes were eluted using a gradient program. The following gradient steps represent gradual changes in % B over time: 5% B from 0 to 0.2 min, 30% B at 2 min, 34% B at 4.8 min, 95% B at 6.5 min, 95% B at 7.5 min and re-equilibrating to 5% B at 7.7 min and 5%B till 8.5 min. A representative chromatogram is shown in supplemental Fig. 2. The scheduled MRM mode was applied for analyte detection in both positive and negative ESI modes (Supplementary Table 4). Calibration curves were constructed with linear regression using weighted (1/x^2) models (detailed information in supplemental methods).
(§5) Partial areas under the plasma concentration–time curves from 0 to 3 h (AUC0–3 h), from 0 to 4 h (AUC0–4 h), and from 0 to 8 h (AUC0–8 h) were calculated based on measured concentrations by the linear trapezoidal rule without extrapolation. […] Metabolic ratios (MR) were calculated by dividing the partial AUC of the metabolite by the respective partial AUC of the parent drug. The MRs were used as biomarkers for the individual CYP activities of the study subjects.

[5] = system: CYP2D6; assay: CYP phenotyping cocktail clinical study: metoprolol/α-OH-metoprolol metabolic ratio and its association with PCB plasma levels; conditions: linear regression of MR AUC0–8 h α-OH-metoprolol/metoprolol (CYP2D6 activity) on PCB plasma concentration
Description: as §1, §2, §3, §4, §5

[6] = Determination of PCB concentrations in plasma of HELPcB and control participants; type: in vivo; conditions: human plasma; for PCB plasma concentration, Geometric mean, HELPcB: HELPcB group; for PCB plasma concentration, Geometric mean, HELPcB / PCB plasma concentration, Geometric mean, Control: N 10; for PCB plasma concentration, Geometric mean, Control: control group
Description: The laboratory regularly participates in round robins for the determination of PCBs in plasma (www.g-equas.de).
Plasma concentrations of PCB congeners were quantified in blood samples from all participants using gas chromatography/mass spectrometry (GC–MS) (Fig. 2A and Supplementary Table 2). A total of 19 PCB congeners were measured in control (n = 10) and HELPcB (n = 10) participants, with PCBs detected in all individuals. […] In the control group, PCB plasma concentrations primarily reflected background environmental exposure, such as dietary intake, representing the general population’s burden.

[7] = molecular target: T1, Human CYP1A2 (Homo sapiens, UniProt P05177); assay: In vitro metabolism by CYP1A2 Supersomes; type: in vitro ADME
T1 construct: purchased; host or cells: insect cells
T1 sequence (P05177 2-516 limits assumed): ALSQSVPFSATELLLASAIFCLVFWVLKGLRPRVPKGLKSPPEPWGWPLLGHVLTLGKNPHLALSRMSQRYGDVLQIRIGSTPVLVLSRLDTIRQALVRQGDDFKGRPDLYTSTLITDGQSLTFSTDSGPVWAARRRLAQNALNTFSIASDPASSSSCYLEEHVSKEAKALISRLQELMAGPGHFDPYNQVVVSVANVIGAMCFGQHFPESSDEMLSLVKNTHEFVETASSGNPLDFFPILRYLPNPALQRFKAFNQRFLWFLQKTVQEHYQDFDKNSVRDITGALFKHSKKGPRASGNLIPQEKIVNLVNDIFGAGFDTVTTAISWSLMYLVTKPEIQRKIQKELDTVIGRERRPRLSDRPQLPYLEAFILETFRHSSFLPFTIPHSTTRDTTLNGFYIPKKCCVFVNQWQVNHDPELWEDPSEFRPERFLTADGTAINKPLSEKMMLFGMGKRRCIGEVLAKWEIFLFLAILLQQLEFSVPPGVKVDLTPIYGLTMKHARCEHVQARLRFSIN
Description: To investigate the metabolism of PCB118 by CYP1A2, incubation assays were conducted using CYP1A2 supersomes in a total reaction volume of 100 µL. Reaction mixtures were assembled on ice. […] Reactions were initiated by the addition of CYP1A2 supersomes.
To assess potential non-enzymatic transformations and confirm NADPH-dependent metabolism, control incubations were performed under the following conditions: buffer and enzyme only (no-substrate control), substrate, buffer, and NADPH without enzyme (no-enzyme control), and substrate, buffer, and enzyme without NADPH (no-NADPH control). Each experimental condition was conducted in triplicate, while control conditions were performed as single replicates.
The resulting supernatants (100 µL) were transferred to LC–MS vials, yielding samples with 80% methanol content for analysis. For the detection of hydroxylated PCB metabolites, reactions were stopped by adding 500 µL methanol, followed by the addition of 50 µL of an internal standard mix (10 ng/mL). Samples were vortexed for 1 min and centrifuged at 4,500 rpm for 10 min. The resulting supernatants were transferred to glass LC vials and evaporated under a nitrogen stream at 45 °C until approximately 50 µL remained. Samples were then reconstituted in 100 µL of 0.1 M ammonium acetate buffer (pH 5.3) before transfer to inserts for LC–MS analysis.
To determine whether PCB118 serves as a substrate for CYP1A2 and could act as a competitive inhibitor for other CYP1A2 substrates, we conducted in vitro metabolism experiments. […] In parallel, CYP1A2-mediated metabolism of PCB118 was assessed. […] The identity of 4-OH-CB107 was verified by comparison with an authentic reference standard, showing identical retention time and spectral characteristics (supplemental Fig. 1).

COc1ccc2[nH]c([S+]([O-])Cc3ncc(C)c(OC)c3C)nc2c1 (stereo not drawn) [omeprazol, omeprazole, reference compound]
effect on CYP1A2 mRNA expression [1]: strongly upregulated CYP1A2 expression | Autosampler stability (24 h) Av. Accuracy (%) ([2]; QC conc. 0,5 ng/ml): 114,94% | 3x freeze-thaw Av. Accuracy (%) ([2]; QC conc. 0,5 ng/ml): 112,03% | Benchtop stability (19 h) Ac. Accuracy (%) ([2]; QC conc. 0,5 ng/ml): 117,42% | Autosampler stability (24 h) Av. Accuracy (%) ([2]; QC conc. 0,25 ng/ml): 102,23% | 3x freeze-thaw Av. Accuracy (%) ([2]; QC conc. 0,25 ng/ml): 112,67% | Benchtop stability (19 h) Ac. Accuracy (%) ([2]; QC conc. 0,25 ng/ml): 91,86% | Autosampler stability (24 h) Av. Accuracy (%) ([2]; QC conc. 60 ng/ml): 111,22% | 3x freeze-thaw Av. Accuracy (%) ([2]; QC conc. 60 ng/ml): 106,21% | Benchtop stability (19 h) Ac. Accuracy (%) ([2]; QC conc. 60 ng/ml): 112,32% | Autosampler stability (24 h) Av. Accuracy (%) ([2]; QC conc. 150 ng/ml): 103,07% | 3x freeze-thaw Av. Accuracy (%) ([2]; QC conc. 150 ng/ml): 105,55% | Benchtop stability (19 h) Ac. Accuracy (%) ([2]; QC conc. 150 ng/ml): 104,38% | Autosampler stability (24 h) Av. Accuracy (%) ([2]; QC conc. 1,5 ng/ml): 114,49% | 3x freeze-thaw Av. Accuracy (%) ([2]; QC conc. 1,5 ng/ml): 111,42% | Benchtop stability (19 h) Ac. Accuracy (%) ([2]; QC conc. 1,5 ng/ml): 115,14%

Clc1cc(Cl)c(-c2ccc(Cl)c(Cl)c2Cl)cc1Cl [PCB138]
t value [3]: 0,221 | β (standardized regression coefficient) [3]: 0,052 | t value [4]: 0,341 | β (standardized regression coefficient) [4]: 0,080 | t value ([4]; PM excl): 0,219 | β (standardized regression coefficient) ([4]; PM excl): 0,053 | t value [5]: 0,157 | β (standardized regression coefficient) [5]: 0,037 | PCB plasma concentration, Mean [±SD] HELPcB ([6]; HELPcB (occupationally exposed) group): 0.795 ± 0.593 ng/mL | PCB plasma concentration, Geometric mean, HELPcB [6]: 0.672 ng/mL | PCB plasma concentration, Mean [±SD] all ([6]; all participants): 0.493 ± 0.516 ng/mL | PCB plasma concentration, Mean [±SD] control ([6]; control group (background exposure)): 0.191 ± 0.090 ng/mL | PCB plasma concentration, Geometric mean, Control [6]: 0.173 ng/mL

Oc1c(Cl)cc(-c2ccc(Cl)c(Cl)c2)c(Cl)c1Cl [4-OH-CB107]
NADPH dependency of metabolite formation from PCB118 ([7]; control incubations lacking NADPH, substrate, or enzyme): strictly NADPH-dependent

CCOc1ccc(NC(C)=O)cc1 [phenacetin, reference compound]
CYP1A2-mediated metabolism of the substrate ([7]; 10 µM substrate, 50 pmol/mL CYP1A2 supersomes, 2 mM NADPH, 1 h (phenacetin), 1 and 4 h (PCB118)): efficiently catalyzed the O-de-ethylation of phenacetin to paracetamol

Clc1cc(Cl)c(-c2cc(Cl)c(Cl)c(Cl)c2Cl)cc1Cl [PCB 180]
PCB plasma concentration, Geometric mean, HELPcB [6]: 0.808 ng/mL | PCB plasma concentration, Geometric mean, Control [6]: 0.372 ng/mL
